Usually EC50 stands for the concentration at which the effect is half-maximal.

The record followed here is patent US12577206B2 (BRISTOL-MYERS SQUIBB COMPANY, priority 2020, dated 2026).

The target of one test is T1, human FPR2 (Homo sapiens, UniProt P25090).
T1 sequence (P25090 1-351): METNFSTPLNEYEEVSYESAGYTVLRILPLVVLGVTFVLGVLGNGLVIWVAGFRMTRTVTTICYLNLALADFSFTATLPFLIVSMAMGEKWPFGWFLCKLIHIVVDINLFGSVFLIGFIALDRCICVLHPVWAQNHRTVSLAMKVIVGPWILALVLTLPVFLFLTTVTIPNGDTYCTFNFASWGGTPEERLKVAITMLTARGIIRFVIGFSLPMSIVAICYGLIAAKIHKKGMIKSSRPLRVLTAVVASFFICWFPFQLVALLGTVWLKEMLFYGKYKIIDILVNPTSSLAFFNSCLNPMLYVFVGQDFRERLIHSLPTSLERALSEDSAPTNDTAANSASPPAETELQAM
Description: FPR2 cyclic adenosine monophosphate (cAMP) assay. It counts as cell-based. Particulars: CHO cells overexpressing human FPR2; forskolin 5 μM; inhibition of cAMP production; HTRF; read-out: hFPR2 cAMP2 EC50. In short, it runs like this: (§1)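 Inhibition of forskolin-stimulated cAMP (final forskolin 5 μM for FPR2, 10 μM for FPR1; IBMX 200 μM) was measured by HTRF in recombinant CHO cells after 30 min at room temperature.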
Background: Changes in cAMP serve as a functional read-out for many G protein-coupled receptors.

A further test has as its target T2, human FPR1 (Homo sapiens, UniProt P21462).
T2 sequence (P21462 1-350): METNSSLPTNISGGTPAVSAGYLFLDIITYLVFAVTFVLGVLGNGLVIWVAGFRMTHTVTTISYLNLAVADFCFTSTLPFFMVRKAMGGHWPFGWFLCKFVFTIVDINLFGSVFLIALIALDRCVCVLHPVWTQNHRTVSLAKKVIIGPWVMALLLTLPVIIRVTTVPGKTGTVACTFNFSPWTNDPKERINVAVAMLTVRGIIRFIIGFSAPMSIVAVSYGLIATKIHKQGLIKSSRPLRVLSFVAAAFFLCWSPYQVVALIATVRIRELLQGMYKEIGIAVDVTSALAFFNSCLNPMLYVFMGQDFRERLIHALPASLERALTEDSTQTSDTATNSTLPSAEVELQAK
The test is described as follows: FPR1 cyclic adenosine monophosphate (cAMP) assay. It counts as cell-based. To be noted: CHO cells overexpressing human FPR1; forskolin 10 μM; inhibition of cAMP production; HTRF; read-out: hFPR1 cAMP2 EC50. In short, it runs like this:
as §1

Each structure is given as a SMILES string.

As for `COc1cc(OCC2CCCO2)nc(-n2c(=O)c(NC(=O)c3ccc(OC(F)F)cc3)c(-c3c(F)cc(OC)cc3F)n2C)c1` (stereo not drawn) [Example 350, N-(5-(2,6-Difluoro-4-methoxyphenyl)-2-(4-methoxy-6-((tetrahydrofuran-2-yl)methoxy)pyridin-2-yl)-1-methyl-3-oxo-2,3-dihydro-1H-pyrazol-4-yl)-4-(difluoromethoxy)benzamide], the EC50 at human FPR2 was 9 nM; on human FPR1, over 10000 nM.
Regarding `COc1cc(F)c(-c2c(NC(=O)c3ccc(OC(F)F)cc3)c(=O)n(-c3nc(C(C)(C)O)ccc3C#N)n2C)c(F)c1` [Example 291, N-{2-[3-cyano-6-(2-hydroxypropan-2-yl)pyridin-2-yl]-5-(2,6-difluoro-4-methoxyphenyl)-1-methyl-3-oxo-2,3-dihydro-1H-pyrazol-4-yl}-4-(difluoromethoxy)benzamide], the EC50 is 2 nM on human FPR2 and over 10000 nM at human FPR1.
In the case of `COc1cc(F)c(-c2c(NC(=O)c3ccc(OC(F)F)cc3)c(=O)n(-c3nc(N[C@H](C)CO)ccc3C(F)(F)F)n2C)c(F)c1` [Example 236, N-[5-(2,6-difluoro-4-methoxyphenyl)-2-(6-{[(2R)-1-hydroxypropan-2-yl]amino}-3-(trifluoromethyl)pyridin-2-yl)-1-methyl-3-oxo-2,3-dihydro-1H-pyrazol-4-yl]-4-(difluoromethoxy)benzamide], the EC50 at human FPR2 was 9 nM; at human FPR1, over 10000 nM.
The like results for `Cn1c(-c2c(F)cc(Cl)cc2F)c(NC(=O)c2ccc(OC(F)(F)F)cc2)c(=O)n1-c1cccc(C(C)(C)O)n1` [Example 406, N-(5-(4-chloro-2,6-difluorophenyl)-2-(6-(2-hydroxypropan-2-yl)pyridin-2-yl)-1-methyl-3-oxo-2,3-dihydro-1H-pyrazol-4-yl)-4-(trifluoromethoxy)benzamide] were, in that order, 12 nM and 1600 nM.
On the same counts, the results for `COc1cc(F)c(-c2c(NC(=O)c3ccc(OC(F)(F)F)cc3)c(=O)n(-c3cccnc3C#N)n2C)c(F)c1` [Example 170, N-[2-(2-cyanopyridin-3-yl)-5-(2,6-difluoro-4-methoxyphenyl)-1-methyl-3-oxo-2,3-dihydro-1H-pyrazol-4-yl]-4-(trifluoromethoxy)benzamide] are 8 nM and over 10000 nM.
For `COc1cc(F)c(-c2c(NC(=O)c3ccc(OC(F)F)cc3)c(=O)n(-c3ccc(-c4ccccc4)cn3)n2C)c(F)c1` [Example 51, N-[5-(2,6-difluoro-4-methoxyphenyl)-1-methyl-3-oxo-2-(5-phenylpyridin-2-yl)-2,3-dihydro-1H-pyrazol-4-yl]-4-(difluoromethoxy)benzamide], the EC50 at human FPR2 turned out to be 18 nM; on human FPR1 it was 1100 nM.
The like results for `CCc1cccnc1-n1c(=O)c(NC(=O)c2ccc(OC(F)F)cc2)c(-c2c(F)cc(OC)cc2F)n1C` [Example 166, N-[5-(2,6-difluoro-4-methoxyphenyl)-2-(3-ethylpyridin-2-yl)-1-methyl-3-oxo-2,3-dihydro-1H-pyrazol-4-yl]-4-(difluoromethoxy)benzamide] were, in that order, 20 nM and over 10000 nM.
On the same counts, the results for `COc1cc(F)c(-c2c(NC(=O)c3ccc(OC(F)F)cc3)c(=O)n(-c3nc(N4CC(C)(O)C4)ccc3C(F)(F)F)n2C)c(F)c1` [Example 138, N-[5-(2,6-difluoro-4-methoxyphenyl)-2-[6-(3-hydroxy-3-methylazetidin-1-yl)-3-(trifluoromethyl)pyridin-2-yl]-1-methyl-3-oxo-2,3-dihydro-1H-pyrazol-4-yl]-4-(difluoromethoxy)benzamide] are 4 nM and 4800 nM.
In the case of `COc1cc(O)c(-c2c(NC(=O)c3ccc(OC(F)F)cc3)c(=O)n(-c3nc(Cl)ccc3Cl)n2C)c(F)c1` [Example 296, N-[2-(3,6-dichloropyridin-2-yl)-5-(2-fluoro-6-hydroxy-4-methoxyphenyl)-1-methyl-3-oxo-2,3-dihydro-1H-pyrazol-4-yl]-4-(difluoromethoxy)benzamide], the values for the EC50 at human FPR2 and at human FPR1 were 33 nM and over 10000 nM, respectively.
